For orientation: IC50 means the midpoint of a concentration-inhibition curve. Read a low IC50 as higher potency.

Bounds are passed on as bounds.

The test deals with T1, human HSD17β13 (stable HEK293T cell line overexpressing human HSD17β13) (Homo sapiens, UniProt Q7Z5P4).
T1 construct: expressed in transfected cells
T1 sequence (Q7Z5P4 20-300): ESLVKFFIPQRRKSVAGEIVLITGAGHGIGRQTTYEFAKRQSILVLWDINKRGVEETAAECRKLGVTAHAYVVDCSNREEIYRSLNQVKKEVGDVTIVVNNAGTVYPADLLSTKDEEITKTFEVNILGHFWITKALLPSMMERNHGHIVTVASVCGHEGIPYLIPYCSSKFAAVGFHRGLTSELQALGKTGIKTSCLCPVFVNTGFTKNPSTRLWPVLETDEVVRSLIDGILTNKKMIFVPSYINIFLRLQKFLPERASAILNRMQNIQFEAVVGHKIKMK
Put plainly: HSD17β13 inhibitor cell-based screening assay (conversion of estradiol-d2 to estrone-d2 by RF-MS). Conditions: conversion of estradiol-d2 to estrone-d2 after 24 hours. Here is the method:
The purpose of this cell-based assay is to determine the cellular efficacy (IC50) of HSD17β13 inhibitors in a stable HEK293 T cell line overexpressing human HSD17β13. The assay measures by Rapid Fire mass-spectrometry (RF-MS) the conversion of estradiol-d2 to estrone-d2. Cytotoxicity was also assessed via luminescent signal generated by the ATPlite viability assay reagent. To screen compounds for HSD17013 inhibition, black 384-well plates were seeded with 1000× concentration of compounds in a 9-point 1:3 dilution curve (final top concentration of 10 μM) as well as 1000× concentration of 17β-estradiol-d2 (5 μM final concentration) added to all wells. HEK293T cells stably overexpressing human HSD17013 and the parent HEK293T cell lines were then seeded in the plates on top of the compounds and substrate in MEM media containing 1% charcoal/dextran-treated FBS. Supernatant is collected and immediately frozen after 24 hours of incubation, and conversion of estradiol-d2 to estrone-d2 is measured at Pure Honey by RF-MS. The remaining media in the plate was removed from the wells and replaced with ATPlite viability assay reagent. Luminescent signal from the ATPlite reagent was measured on the Envision plate reader. 10 μL of 10 mM compounds stocks (1000×) dissolved in DMSO were pipetted into the appropriate wells on the 384 LDV plate (Labcyte; cat. no.: LP-0200) and the appropriate volumes of DMSO solvent were included onto an intermediate plate to further dilute the compound stocks to complete the 9-pt dose curve (final top concentration of 10 μM). 10 μL per well of 5 mM estradiol-d2 (1000×) (Cayman; item no.: 9002846) (5 μM final concentration) dissolved in DMSO was seeded into the appropriate number of wells on the same source plate as the compounds. The Echo 650 (Labcyte) was used for compound dilutions and dispensing both the compounds and the substrate onto a dry 384-well black assay plate (Falcon/Corning; cat. no.:353962). Afterwards, cells were immediately counted and seeded onto the plate. Cells were cultured for expansion in EMEM (ATCC; cat. no.: 30-2003)+10% FBS (Hyclone; cat. no.: SH3007003)+1×PenStrep (Gibco; cat. no.: 15140-122). All media for stable cell line overexpressing HSD17013 also included […] zeocin (Invitrogen; cat. no.: 46-0509) for selection. To prepare cells for seeding into the 384-well assay plate, cells were trypsinized for 3 minutes in the incubator. The Trypsin-EDTA (0.25%) (Gibco; cat. no.: 25200056) was neutralized with EMEM complete culture medium warmed to 37° C. Cells were then centrifugated at 300×g for 5 minutes at room temperature. The cell pellet was resuspended in phenol red-free MEM (Gibco; cat. no.: 51200-038)+1% charcoal/dextran-treated FBS (Hyclone; cat. no.: SH3006803) and 1×PenStrep warmed to 37° C. Cells were then counted using the TC20 automated cell-counter (Bio-Rad) and disposable duel chamber counting slides (Bio-Rad; cat. no.: 1450016) for a cell density of 1.5E5 cells/mL to then seed into the assay plate at 7.5E3 cells/well with 50 μL of media per well. Prior to the 24-hour time point, a solution of 1% formic acid (10×) (Honeywell; cat. no.: 94318) in MEM phenol red-free MEM+1% charcoal/dextran-treated FBS and 1×PenStrep was made. ATPlite luminescent ATP detection reagent (PerkinElmer; cat. no.: 6016739) was prepared according to the manufacturer's instructions. A new 384-well Falcon plate (collection plate) was seeded with 2 μL per well of 10× formic acid and then 18 μL of cell supernatant was added onto the formic acid, resulting in a 20 μL per well solution of 0.1% formic acid (1×) in supernatant. The plate of collected supernatant was immediately frozen on dry ice before being stored at −80° C. The collection plate was shipped to Momentum Biotechnologies for analysis. The remaining supernatant in the assay plate was discarded and 25 μL of ATPlite reagent was added to each well. […]
For the molecule `Cn1ncc2cc(-c3nc4sc5c(O)c(Cl)ccc5c4c(=O)n3Cc3cnco3)c(C3CC3)cc21` [Example 142], the half-maximal inhibitory concentration (IC50) was less than 100 nM.

`O=c1c2c(nc(-c3ccc(C(F)(F)F)nc3C3CC3)n1Cc1cnc(C(F)(F)F)nc1)sc1c(O)c(Cl)ccc12` [Example 67, 7-chloro-2-(2-cyclopropyl-6-(trifluoromethyl)pyridin-3-yl)-8-hydroxy-3-((2-(trifluoromethyl)pyrimidin-5-yl)methyl)benzo[4,5]thieno[2,3-d]pyrimidin-4(3H)-one]: the IC50 is less than 100 nM.

`O=c1c2c(nc(-c3ccc(C(F)F)cc3C3CC3)n1Cc1ccc(C(F)(F)F)nc1)sc1c(O)c(Cl)ccc12` [Example 180]: the IC50 is less than 100 nM.

In turn, `COc1cc(C2CC2)c(-c2nc3sc4c(O)c(Cl)ccc4c3c(=O)n2Cc2cnco2)cn1` [Example 203] came in with a half-maximal inhibitory concentration (IC50) of 100 to 500 nM.

`O=c1c2c(nc(-c3ccc(C(F)(F)F)nc3C3CC3)n1Cc1cnco1)sc1c(O)c(Cl)ccc12` [Example 92] gave an IC50 of less than 100 nM.

`COc1ccc(-c2nc3sc4c(O)c(Cl)ccc4c3c(=O)n2Cc2cnoc2)c(C2CC2)c1` [Example 57, 7-chloro-2-(2-cyclopropyl-4-methoxyphenyl)-8-hydroxy-3-(isoxazol-4-ylmethyl)benzo[4,5]thieno[2,3-d]pyrimidin-4(3H)-one] came in with an IC50 of less than 100 nM.

Regarding `COc1ccc(-c2nc3sc4c(O)c(C#N)ccc4c3c(=O)n2Cc2cnco2)c(C2CC2)c1` [Example 33, 2-(2-cyclopropyl-4-methoxyphenyl)-8-hydroxy-3-(oxazol-5-ylmethyl)-4-oxo-3,4-dihydrobenzo[4,5]thieno[2,3-d]pyrimidine-7-carbonitrile], the IC50 is 500 to 1000 nM.

The molecule `O=c1c2c(nc(-c3cc(F)c(Cl)cc3C3CC3)n1Cc1cc(C(F)(F)F)no1)sc1c(O)c(Cl)ccc12` [Example 84] displayed an IC50 of less than 100 nM.

`O=c1c2c(nc(-c3ncc(F)cc3C3CC3)n1Cc1ccc(C(F)(F)F)nc1)sc1c(O)c(Cl)ccc12` [Example 102] returned an IC50 of less than 100 nM.

The molecule `O=c1c2c(nc(-c3cnc(C(F)(F)F)cc3C3CC3)n1Cc1cnco1)sc1c(O)c(Cl)ccc12` [Example 204] returned an IC50 of less than 100 nM.

`Cc1cc(-c2nc3sc4c(O)c(Cl)ccc4c3c(=O)n2Cc2cnco2)c(C2CC2)s1` [Example 91]: the IC50 was less than 100 nM.

Turning to `O=c1c2c(nc(-c3ncc(C(F)(F)F)cc3C3CC3)n1Cc1cnco1)sc1c(O)c(Cl)ccc12` [Example 90], the IC50 is less than 100 nM.

`O=c1c2c(nc(-c3ncc(C(F)F)cc3C3CC3)n1Cc1cnc(C(F)(F)F)nc1)sc1c(O)c(Cl)ccc12` [Example 116, 7-chloro-2-(3-cyclopropyl-5-(difluoromethyl)pyridin-2-yl)-8-hydroxy-3-((2-(trifluoromethyl)pyrimidin-5-yl)methyl)benzo[4,5]thieno[2,3-d]pyrimidin-4(3H)-one]: the IC50 was less than 100 nM.

`O=c1c2c(nc(-c3ccc4ccccc4c3C3CC3)n1Cc1cnco1)sc1c(O)c(Cl)ccc12` [Example 145]: the IC50 is less than 100 nM.

With `O=c1c2c(nc(-c3ncc(F)cc3C3CC3)n1Cc1cnco1)sc1c(O)c(Cl)ccc12` [Example 89], the IC50 was less than 100 nM.

Turning to `COc1ccc(-c2nc3sc4c(ccc5oc(=O)[nH]c54)c3c(=O)n2Cc2cnco2)c(C2CC2)c1` [Example 38, 8-(2-cyclopropyl-4-methoxyphenyl)-7-(oxazol-5-ylmethyl)oxazolo[4″,5″:3′,4′]benzo[1′,2′:4,5]thieno[2,3-d]pyrimidine-2,6(1H,7H)-dione], the IC50 was in the range of 1000 to 100000 nM.

Take `COc1ccc(-c2nc3sc4c(O)c(Cl)ccc4c3c(=O)n2Cc2ccc(OC)nc2)c(C2CC2)c1` [Example 160]: the IC50 is less than 100 nM.

For `COc1ccc(-c2nc3sc4c(O)c(Cl)ccc4c3c(=O)n2Cc2cccnc2)c(C2CC2)c1` [Example 152], the IC50 was less than 100 nM.

The molecule `O=c1c2c(nc(-c3cc(F)c(C(F)F)cc3C3CC3)n1Cc1ccc(C(F)(F)F)nc1)sc1c(O)c(Cl)ccc12` [Example 181] showed an IC50 of less than 100 nM.

As for `COc1ccc(-c2nc3sc4c(O)c(Cl)cc(Br)c4c3c(=O)n2Cc2cnco2)c(C2CC2)c1` [Example 222], the IC50 was 100 to 500 nM.

Molecule `COc1ccc(-c2nc3sc4c(O)ccc(F)c4c3c(=O)n2Cc2cnco2)c(C2CC2)c1` [Example 55, 2-(2-cyclopropyl-4-methoxyphenyl)-5-fluoro-8-hydroxy-3-(oxazol-5-ylmethyl)benzo[4,5]thieno[2,3-d]pyrimidin-4(3H)-one] had a 50% inhibitory concentration (IC50) of less than 100 nM.

In turn, `COc1ccc(-c2nc3sc4c(Br)c(O)ccc4c3c(=O)n2Cc2cnco2)c(C2CC2)c1` [Example 37, 8-bromo-2-(2-cyclopropyl-4-methoxyphenyl)-7-hydroxy-3-(oxazol-5-ylmethyl)benzo[4,5]thieno[2,3-d]pyrimidin-4(3H)-one] had an IC50 of 1000 to 100000 nM.

`Cn1ccc(Cn2c(-c3cc(F)c(F)cc3C3CC3)nc3sc4c(O)c(Cl)ccc4c3c2=O)cc1=O` [Example 167]: the IC50 was less than 100 nM.

Consider `COc1ccc(-c2nc3sc4c(O)c(Cl)ccc4c3c(=O)n2Cc2cnco2)c(C)c1` [Example 124], for which the IC50 lay in the range of 100 to 500 nM.

Take `COc1cccc(-c2nc3sc4c(O)c(Cl)ccc4c3c(=O)n2Cc2cnco2)c1C1CC1` [Example 146]: the IC50 is less than 100 nM.

Take `Cn1cc(Cn2c(-c3cc(F)c(C(F)F)cc3C3CC3)nc3sc4c(O)c(Cl)ccc4c3c2=O)ccc1=O` [Example 187]: the IC50 is less than 100 nM.

`COc1ccc(-c2nc3sc4c(O)c(F)cc(F)c4c3c(=O)n2Cc2cnco2)c(C2CC2)c1` [Example 223, 2-(2-cyclopropyl-4-methoxyphenyl)-5,7-difluoro-8-hydroxy-3-(oxazol-5-ylmethyl)benzo[4,5]thieno[2,3-d]pyrimidin-4(3H)-one]: the IC50 was less than 100 nM.

Consider `CCc1ncc(Cn2c(-c3cc(F)c(F)cc3C3CC3)nc3sc4c(O)c(Cl)ccc4c3c2=O)s1` [Example 205], for which the IC50 is less than 100 nM.

In turn, `O=c1c2c(nc(-c3cc(F)c(F)cc3C3CC3)n1Cc1cc(C(F)(F)F)no1)sc1c(O)c(Cl)cc(F)c12` [Example 219, 7-chloro-2-(2-cyclopropyl-4,5-difluorophenyl)-5-fluoro-8-hydroxy-3-((3-(trifluoromethyl)isoxazol-5-yl)methyl)benzo[4,5]thieno[2,3-d]pyrimidin-4(3H)-one] yielded an IC50 of less than 100 nM.

With `N#Cc1ccc(Cn2c(-c3cc(F)c(F)cc3C3CC3)nc3sc4c(O)c(Cl)ccc4c3c2=O)cn1` [Example 172], the IC50 was less than 100 nM.

`O=c1c2c(nc(-c3ncc(C(F)(F)F)cc3C3CC3)n1Cc1ccc(C(F)(F)F)nc1)sc1c(O)c(Cl)ccc12` [Example 100]: the IC50 is less than 100 nM.

As to `CS(=O)(=O)c1ccc(-c2nc3sc4c(O)c(Cl)ccc4c3c(=O)n2Cc2cnco2)c(C2CC2)c1` [Example 80], the IC50 is less than 100 nM.
